The results in this text go back to article PMC7006651, “Effect of 6-Benzoyl-benzothiazol-2-one scaffold on the pharmacological profile of α-alkoxyphenylpropionic acid derived PPAR agonists” (Journal of Enzyme Inhibition and Medicinal Chemistry, 2020).

For data set [1], the target named is T1, human PPARγ (Homo sapiens, UniProt P37231).
T1 sequence (P37231 235-505 limits assumed): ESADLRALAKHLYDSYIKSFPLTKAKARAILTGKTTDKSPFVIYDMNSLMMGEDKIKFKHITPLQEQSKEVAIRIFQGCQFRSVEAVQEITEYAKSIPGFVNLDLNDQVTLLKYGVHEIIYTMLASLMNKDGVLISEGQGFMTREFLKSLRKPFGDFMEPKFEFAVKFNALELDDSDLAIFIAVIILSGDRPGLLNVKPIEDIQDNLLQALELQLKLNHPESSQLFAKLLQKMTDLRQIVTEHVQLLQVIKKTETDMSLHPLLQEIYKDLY
The data set can be described thus: Membrane-bound PPARγ binding assay ([3H]rosiglitazone competition, filtration). The note with it: competition with [3H]rosiglitazone (4 nM), 180 min at 4 °C; read-out: Ki (nM), hPPARγ binding affinity. The protocol: The membrane-associated PPARγ was used as the biological source as previously described. Binding buffer consisted of 10 mM Tris/HCl, pH 8.2, containing 50 mM KCl and 1 mM dithiothreitol. […] Radioactivity was measured in a TopCount apparatus (Packard).

A further data set deals with ob/ob mice. The experiment in a line: In vivo ob/ob mice: glycaemia, triglyceridemia, insulinemia, body weight.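 On all read-outs here: male ob/ob mice aged 10–12 weeks, given the compound once daily by oral gavage as a 1% hydroxyethylcellulose suspension, 8–12 animals per group.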 The note with it: oral, 4 days, synthesised compounds 8.4 µMkg^−1, references 3 mgkg^−1; for ΔBW (body weight variation between day 0 and day 4): expressed in % of rosiglitazone in the same study (= 100%), ob/ob mice; for Change (%) Gly (glycemia) / Change (%) Ins (insulin) / Change (%) TG (triglycerides): percent change versus control, ob/ob mice at day 4.

The target in the next data set is T2, human PPARα (Homo sapiens, UniProt Q07869).
T2 construct: expressed in transfected cells; host or cells: Cos-7
T2 sequence (Q07869 239-466 limits assumed): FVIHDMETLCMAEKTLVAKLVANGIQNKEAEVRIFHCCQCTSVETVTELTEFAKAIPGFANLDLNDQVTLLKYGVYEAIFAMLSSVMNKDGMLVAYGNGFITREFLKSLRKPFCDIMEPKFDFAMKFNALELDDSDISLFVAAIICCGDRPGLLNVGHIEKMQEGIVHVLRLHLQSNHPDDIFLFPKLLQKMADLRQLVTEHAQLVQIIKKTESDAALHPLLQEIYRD
The experiment in a line: Gene reporter (transactivation) assay, Cos-7 cells transfected with pGal4-hPPARα.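 On all read-outs here: luciferase signal from a Gal4-driven reporter normalised to cotransfected β-galactosidase activity, cells exposed to rising compound concentrations with DMSO vehicle as control.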 The note with it: for Emax: COS-7, 24 h, Emax relative to maximum activation with WY14643 (10 µM) = 100%, read-out: hPPAR gene reporter αGal4 (%); for pEC50: GAL4 chimeric hPPARα, 24 h, read-out: hPPAR gene reporter αEC50. It counts as cell-based.

In data set [2] the target is T3, human PPARγ (Homo sapiens, UniProt P37231).
T3 construct: expressed in transfected cells; host or cells: Cos-7
T3 sequence (P37231 238-503 limits assumed): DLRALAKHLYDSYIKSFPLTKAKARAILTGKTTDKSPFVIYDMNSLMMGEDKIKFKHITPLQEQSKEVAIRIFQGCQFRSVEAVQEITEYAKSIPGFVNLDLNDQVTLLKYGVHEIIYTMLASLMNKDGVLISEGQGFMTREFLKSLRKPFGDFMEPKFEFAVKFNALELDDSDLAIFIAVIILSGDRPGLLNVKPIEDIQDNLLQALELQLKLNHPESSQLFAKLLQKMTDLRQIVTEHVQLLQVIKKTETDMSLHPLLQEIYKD
The experiment in a line: Gene reporter (transactivation) assay, Cos-7 cells transfected with pGal4-hPPARγ.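 On all read-outs here: luciferase reporter (pG5-TK) activity normalised to cotransfected β-galactosidase, cells exposed to increasing compound concentrations in DMEM with 0.2% FCS, DMSO vehicle as control.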 It counts as cell-based. The note with it: Cos-7 cells, 24 h; for Emax: COS-7, 24 h, Emax relative to maximum activation with rosiglitazone (1 μM) = 100%, read-out: hPPAR gene reporter γGal4 (%); for pEC50: GAL4 chimeric hPPARγ, read-out: hPPAR gene reporter γEC50.
Description: (§1) Cos-7 cells were transiently transfected with luciferase reporter plasmid (pG5-TK-pGL3) in the presence of pGal4-hPPARα or pGal4-hPPARγ (these vectors express chimeric proteins containing the Gal4 DNA-binding domain fused to the human PPARα or PPARγ ligand binding domain coding sequence) expression vector. […] Cells were transfected in OptiMEM without FCS for 3 h at 37°, using polyethylenimine (PEI), with reporter and expression plasmids, as stated in figure’s legend. The plasmid pBluescript (Stratagene, La Jolla, CA) was used as carrier DNA to set the final amount of DNA to 5.5 µg/dish. The pCMV- ß-galactosidase expression plasmid was cotransfected as a control for transfection efficiency. […] After 16 h, cells were trypsinised and seeded in 96-well plates at the density of 2 × 10^4 cells/well and incubated for 6 h in 10% FCS containing DMEM. Cells were then incubated for 24 h in DMEM containing 0.2% FCS and increasing concentrations of the compound tested or vehicle (DMSO). At the end of the experiment, cells were washed once with ice-cold PBS and the luciferase and the β–galactosidase assays were performed as described previously[20]. Cells were incubated 24 h in the presence of indicated concentrations of compound. Luciferase activity was measured and normalised to internal control β-galactosidase activity. […] EC50 were estimated using Prism software (GraphPad). All transfection experiments were performed at least three times.

For the next data set, the system named is CaCO2 cells. The experiment in a line: CaCo2 cell absorption (membrane permeability model). It counts as in vitro ADME. The note with it: percentage of absorption. The method, then: The in vivo effect of test compounds was determined by measuring glycaemia, triglyceridemia, insulinemia, and body weight using ob/ob mice (Table 3). The ob/ob mice were obese, insulin resistant with hypertriglyceridaemia and hyperglycaemia, and have been used as a rodent model of obesity-induced insulin resistance. […] As a side effect index, body weight was also measured daily, and body weight variation was calculated as a percentage of the difference in body weight between days 4 and 0. […] Benzoyl derivatives 32a, 41a and 42a were not evaluated in vivo with regard to their low absorption values with CaCO2 cells (< 25%), an in vitro model predicting membrane permeability. […] Indeed, incorporation of substituents such as methyl oxime ether and trifluoroethoxy group are benefiting for PPAR activity regulation and so for effective management of dyslipidemia without inducing body weight gain. […] The CF3 group incorporation, beyond keeping a good in vivo efficacy, provided a robust reduction of body weight induced with compound 44a, strengthening the beneficial pharmacological effect of C-H bond replacement with fluorine. Compound 44 b may be considered as a SPPARγM since this full PPARγ agonist retains the insulin-sensitizing and glucose-lowering actions while mitigating or eliminating the undesirable side effects.
On the technique in general: Caco-2 monolayers are a common model of the intestinal barrier.

pEC50: −log10 of the molar value. A value given as a limit tells only on which side of the number the result lay.

Description for human PPARα: as §1
Description for ob/ob mice: The glucose- and triglyceride-lowering activities of the compounds prepared were then tested using 10–12-week-old male ob/ob mice. […] Mice had access to filtered (0.22 mm) tap water ad libitum and irradiated pelleted laboratory chow (transbreed, Special Diet Services, England) throughout the study. Compounds were prepared as a suspension in 1% hydroxyethylcellulose (HEC) for oral administration (10 mLkg^−1). The mice (n = 8–12 per group) were dosed by gavage daily between 15:00 and 17:00 for 4 days. Randomisation was performed based on glycaemia values. The body weight gain (DBW in grams) of the animals was determined by measuring the difference between body weight at the beginning and end of the study for each mouse. At day 5 between 9:00 and 11:00 the mice were weighed, and blood samples were collected into heparin-containing tubes by retro-orbital puncture (500 mL per mouse). […] Plasma samples were prepared by centrifugation (2000 g for 10 min), and stored at −20 °C. For triglycerides and insulin determination, the percent change in plasma level in the treated group was calculated relative to the mean plasma level in the vehicle-treated group. ANOVA, followed by Dunnett’s comparison test (one-tailed) was used to estimate significant differences between the plasma glycaemia, triglycerides, insulin, and DBW values between the control group and the individual compound-treated groups.

Regarding `O=C(O)C(Cc1ccc(OCCn2c(=O)sc3cc(C(=NO)c4ccccc4)ccc32)cc1)OCC(F)(F)F` (mixture of isomers) [Compound 39b, 3-{4-[2–(6-[(Z/E)-hydroxyimino-phenyl-methyl]-2-oxo-benzothiazol-3-yl)-ethoxy]-phenyl}-2–(2,2,2-trifluoro)ethoxypropionic acid], the melting point (in general, the temperature of the solid-liquid transition) fell in the range of 55 to 56 °C. The Ki (as a rule, a measure of affinity in units of concentration, obtained from inhibition or displacement) at human PPARγ [1] came to 165 nM. In the data set on ob/ob mice, the “ΔBW (body weight variation between day 0 and day 4)” value (shortened to “ΔBW”) is on record as 75%; the “Change (%) Gly (glycemia)” value is −18%; the “Change (%) Ins (insulin)” value is 10%; the “Change (%) TG (triglycerides)” value is −30%. Further, at human PPARα, the Emax came to 29%. In addition, at human PPARγ [2], the Emax is 44% and the pEC50 is 8.00.

Consider `CON=C(c1ccccc1)c1ccc2c(c1)sc(=O)n2CCOc1ccc(CC(OCC(F)(F)F)C(=O)O)cc1` (racemic) [Compound 40b, 3-{4-[2–(6-[(E)-methoxyimino-phenyl-methyl]-2-oxo-benzothiazol-3-yl)-ethoxy]-phenyl}-2–(2,2,2-trifluoro)ethoxypropionic acid], for which the melting point was in the range of 56 to 57 °C. In addition, on human PPARγ [1], the Ki is 1.3 nM. Besides, in the data set with ob/ob mice, the “ΔBW” value is −70%; the “Change (%) Gly (glycemia)” value is recorded as −37%; the “Change (%) Ins (insulin)” value is −55%; the “Change (%) TG (triglycerides)” value is given as −54%. Further, at human PPARα, the Emax was 56% and the pEC50 is 6.74. For the same compound, at human PPARγ [2], the Emax was 95% and the pEC50 was 8.15.

On to `CCOC(Cc1ccc(OCCn2c(=O)sc3cc(C(=O)c4ccccc4)ccc32)cc1)C(=O)O` (stereo not shown) [Compound 32a, 3-{4-[2–(6-benzoyl-2-oxo-benzothiazol-3-yl)-ethoxy]-phenyl}-2-ethoxypropionic acid], for which the melting point lay in the range of 57 to 59 °C. Besides, on human PPARγ [1], the inhibitory constant (Ki) stood at 4 nM. Further, the “absorption with CaCO2 cells (CaCo2 permeability)” value in the data set on CaCO2 cells is less than 25%. Besides, on human PPARα, the Emax was not below 80% and the pEC50 is 5.62. For the same compound, at human PPARγ [2], the Emax was not below 80% and the pEC50 is 7.82.

For `CCOC(Cc1ccc(OCCN2C(=O)COc3ccc(C(=O)c4ccccc4)cc32)cc1)C(=O)O` (stereo not shown) [Compound 35, 3-{4-[2–(6-benzoyl-3-oxo-benzo[1, 4]oxazin-4-yl)-ethoxy]-phenyl}-2-ethoxypropionic acid], the melting point was 47 to 49 °C. In addition, the Ki on human PPARγ [1] came to 3 nM. Further, the Emax on human PPARα was determined as 97%. In addition, on human PPARγ [2], the Emax is more than 100% and the pEC50 is 8.70.

For the compound `CCOC(Cc1ccc(OCCN2C(=O)COc3cc(C(=O)c4ccccc4)ccc32)cc1)C(=O)O` (stereo not shown) [Compound 36, 3-{4-[2–(7-benzoyl-3-oxo-benzo[1, 4]oxazin-4-yl)-ethoxy]-phenyl}-2-ethoxypropionic acid], the melting point was in the range of 36 to 38 °C. Moreover, the Ki on human PPARγ [1] stood at 1 nM. The Emax at human PPARα amounted to 80%. At human PPARγ [2], the Emax was more than 100% and the pEC50 is 7.10.

Compound `CCOC(Cc1ccc(OCCN2C(=O)Cc3cc(C(=O)c4ccccc4)ccc32)cc1)C(=O)O` (stereo not shown) [Compound 37, 3-{4-[2–(5-benzoyl-2-oxo-2,3-dihydroindol-1-yl)ethoxy]phenyl}-2-ethoxypropionic acid] had a melting point of 68 to 70 °C. At human PPARγ [1], the Ki is 6.5 nM. Besides, the Emax on human PPARα is 100%. On human PPARγ [2], the Emax is not above 75% and the pEC50 is 7.40.

Turning to `CCOC(Cc1ccc(OCCn2c(=O)sc3cc(/C(=N/O)c4ccccc4)ccc32)cc1)C(=O)O` (stereo not shown) [Compound 39a, 3-{4-[2–(6-[(E)-hydroxyimino-phenyl-methyl]-2-oxo-benzothiazol-3-yl)-ethoxy]-phenyl}-2-ethoxypropionic acid], the melting point fell in the range of 84 to 85 °C. Moreover, the Ki on human PPARγ [1] was 2 nM. Further, in the data set with ob/ob mice, the “ΔBW” value is recorded as −10%; the “Change (%) Gly (glycemia)” value is −49%; the “Change (%) Ins (insulin)” value was −34%; the “Change (%) TG (triglycerides)” value is −69%. Moreover, the Emax on human PPARα was 129%. Besides, on human PPARγ [2], the Emax amounted to 91% and the pEC50 is 7.62.

As for `CCOC(Cc1ccc(OCCn2c(=O)sc3cc(/C(=N/OC)c4ccccc4)ccc32)cc1)C(=O)O` (stereo not shown) [Compound 40a, 3-{4-[2–(6-[(E)-methoxyimino-phenyl-methyl]-2-oxo-benzothiazol-3-yl)-ethoxy]-phenyl}-2-ethoxypropionic acid], the melting point fell in the range of 151 to 152 °C. In addition, the Ki at human PPARγ [1] stood at 4 nM. Also, in the data set with ob/ob mice, the “ΔBW” value came out at 188%; the “Change (%) Gly (glycemia)” value is −58%; the “Change (%) Ins (insulin)” value is −76%; the “Change (%) TG (triglycerides)” value is reported as −83%. At human PPARα, the Emax stood at 159% and the pEC50 was 6.89. Moreover, on human PPARγ [2], the Emax turned out to be 87% and the pEC50 was 8.70.

In turn, `CCO[C@@H](Cc1ccc(OCCn2c(=O)sc3cc(/C(=N/O)c4ccccc4)ccc32)cc1)C(=O)O` [Compound 43a, (S)-3-{4-[2–(6-[(E)-hydroxyimino-phenyl-methyl]-2-oxo-benzothiazol-3-yl)-ethoxy]-phenyl}-2-ethoxypropionic acid] came in with a melting point of 84 to 85 °C. Further, the Ki at human PPARγ [1] came to 0.5 nM. Moreover, in the data set on ob/ob mice, the “ΔBW” value is 113%; the “Change (%) Gly (glycemia)” value is recorded as −55%; the “Change (%) Ins (insulin)” value is given as −29%; the “Change (%) TG (triglycerides)” value is −33%. Besides, on human PPARα, the Emax was found to be 153%. Besides, on human PPARγ [2], the Emax came out at 123% and the pEC50 was 7.80.

Compound `CCO[C@@H](Cc1ccc(OCCn2c(=O)sc3cc(/C(=N/OC)c4ccccc4)ccc32)cc1)C(=O)O` [Compound 44a, (S)-3-{4-[2–(6-[(E)-methoxyimino-phenyl-methyl]-2-oxo-benzothiazol-3-yl)-ethoxy]-phenyl}-2-ethoxypropionic acid] returned a melting point of 151 to 152 °C. Also, the Ki at human PPARγ [1] stood at 0.7 nM. Moreover, in the data set with ob/ob mice, the “ΔBW” value was 177%; the “Change (%) Gly (glycemia)” value is −46%; the “Change (%) Ins (insulin)” value is given as −81%; the “Change (%) TG (triglycerides)” value is given as −79%. Moreover, at human PPARα, the Emax was 154% and the pEC50 was 7.49. Also, at human PPARγ [2], the Emax was 115% and the pEC50 is 8.70.

For `CCO[C@H](Cc1ccc(OCCn2c(=O)sc3cc(/C(=N/OC)c4ccccc4)ccc32)cc1)C(=O)O` [Compound 46a, (R)-3-{4-[2–(6-[(E)-methoxyimino-phenyl-methyl]-2-oxo-benzothiazol-3-yl)-ethoxy]-phenyl}-2-ethoxypropionic acid], the melting point fell in the range of 151 to 152 °C. Also, the Ki on human PPARγ [1] was determined as 86 nM. Also, at human PPARα, the Emax came to 124% and the pEC50 is 5.83. Moreover, at human PPARγ [2], the Emax was determined as 87% and the pEC50 was 6.25.
